Results on 13 molecules are retold here after patent US6706709B2, “Indolinone derivatives as protein kinase/phosphatase inhibitors” (Sugen, Inc., priority 2000, dated 2004).

Assay [1] addresses GST-Flk1 (UniProt P35918). Put plainly: GST-FLK-1 bioassay (bio flkGST). It is filed as biochemical. How it is done:
This assay analyzes the tyrosine kinase activity of GST-Flk1 on poly glu tyr peptides.
2. poly glu tyr 4:1, lyophilizate (Sigma Catalog # P0275). Prepare 1 mg/mL poly glu tyr in sterile PBS and store in 1 ml aliquots at −20° C.
3. Preparation of poly glu tyr (pEY) coated assay plates: Coat 2 μg/well of poly glu tyr (pEY) in 100 μL PBS at room temperature for 2 hours or at +4° C. overnight. Cover plates well to prevent evaporation.
4. PBS Buffer: To make 1 liter of a 1× working solution, mix […], 1.15 g NA2HPO4, 0.2 g KCl and 8 g NaCl in approx. 900 mL dH2O. When all reagents have dissolved, adjust the pH to 7.2 with HCl. Bring total volume to 1L with dH2O.
5. PBS-Tw Buffer: To 1L of PBS Buffer, add […] Tween-20. Stir until dissolved.
6. TBB-Blocking Buffer: To make one liter of a 1× working solution, mix 1.21 g TRIS, 8.77 g NaCl, 1 mL TWEEN-20 in approximately 900 mL dH2O. Adjust pH to 7.2 with HCl. Add 10 g BSA, stir to dissolve. Bring total volume to 1 L with dH2O. Filter to remove particulate matter.
7. 1% BSA in PBS: To make a 1× working solution, add 10 g BSA to approx. 990 mL PBS buffer, stir to dissolve. Adjust total volume to 1 L with PBS buffer, filter to remove particulate matter.
9. GST-Flk1cd purified from sf9 recombinant baculovirus transformation.
13. Kinase Dilution Buffer (KDB): Mix 10 mL Hepes (pH 7.5), 1 mL of 5 M NaCl, 40 μL of 100 mM NaVO4 and 0.4 mL of 5% BSA in dH2O with 88.56 mL of dH2O.
14. NUNC-96-well V bottom polypropylene plates Applied Scientific Catalog # AS-72092
15. EDTA: Mix 14.12 g ethylenediaminetetraacetic acid (EDTA) to approx. 70 mL dH2O. Add 10N NaOH until EDTA dissolves. Adjust pH to 8.0. Adjust total volume to 100 mL with dH2O.
16. 1° Antibody Dilution Buffer: Mix 10 mL of 5% BSA in PBS buffer with 89.5 mL TBSTw.
17. Anti-phosphotyrosine monoclonal conjugated to horseradish peroxidase (PY99 HRP, Santa Cruz Biotech).
18. 2,2′-Azino-bis(3-ethylbenzthiazoline-6-sulfonic acid (ABTS, Moss, Cat. No. ABST).
1. Coat Corning 96 well ELISA plates with 2 μg of polyEY peptide in sterile PBS as described in step 3 of Materials and Reagents.
2. Remove unbound liquid from wells by inverting plate. Wash once with TBSTw. Pat the plate on a paper towel to remove excess liquid.
3. Add 100 μL of 1% BSA in PBS to each well. Incubate, with shaking, for 1 hr. at room temperature.
5. Soak wells with 50 mM Hepes pH7.5 (150 μL/well).
6. Dilute test compound with dH2O/4% DMSO to 4 times the desired final assay concentration in 96-well polypropylene plates.
7. Add 25 μL diluted test compound to ELISA plate.
8. Add 25 μL of 40 mM MnCl2 with 4×ATP (2 μM) to all wells.
9. Add 25 μL 0.5 M EDTA to negative control wells.
10. Dilute GST-Flk1 0.005 μg (5 ng)/well in KDB. For 50 ml KDB add 100 μL of 0.050 mg/mL GST-Flk1 enzyme.
11. Add 50 μL of diluted enzyme to each well.
12. Incubate, with shaking, for 15 minutes at room temperature.
13. Stop reaction by adding 50 μL of 250 mM EDTA (pH 8.0).
14. Wash 3× with TBSTw and pat plate on paper towel to remove excess liquid.
15. Add 100 μL per well anti-phosphotyrosine HRP conjugate, 1:5,000 dilution in antibody dilution buffer. Incubate, with shaking for 90 min. at room temperature.
16. Wash as described above in step 14.
17. Add 100 μL of room temperature ABTS solution to each well.
18. Incubate, with shaking, for 10 to 15 minutes. Remove any bubbles.
19. Stop reaction by adding 20 μL of 10% SDS.
20. Read assay on Dynatech MR7000 ELISA reader: test filter at 410 nM; reference filter at 630 nM.

The target of assay [2] is T1, EGF Receptor (Homo sapiens, UniProt P00533).
T1 construct: expressed in transfected cells; host or cells: NIH 3T3/C7 (mouse fibroblasts engineered to express human EGF-R)
Put plainly: bio EGF (EGF Receptor ELISA). The class given is biochemical. How it is done: EGF Receptor kinase activity in cells genetically engineered to express human EGF-R was measured as described below:
The following materials and reagents were used:
b. 05-101 (UBI) (a monoclonal antibody recognizing an EGFR extracellular domain).
c. Anti-phosphotyrosine antibody (anti-Ptyr) (polyclonal).
d. Detection antibody: Goat anti-rabbit lgG horse radish peroxidase conjugate, TAGO, Inc., Burlingame, Calif.
Keep solution in dark at 4° C. until used.
The following protocol was used:
1. […] Coated plates are good for up to 10 days when stored at 4° C.
2. On day of use, remove coating buffer and replace with blocking buffer (5% Carnation Instant Non-Fat Dry Milk in PBS). Incubate the plate, shaking, at room temperature (about 23° C. to 25° C.) for 30 minutes. Just prior to use, remove blocking buffer and wash plate 4 times with TBST buffer.
2. Choose dishes having 80-90% confluence for the experiment. Trypsinize cells and stop reaction by adding 10% CS DMEM medium. Suspend cells in DMEM medium (10% CS DMEM medium) and centrifuge once at 1000 rpm at room temperature for 5 minutes.
3. Resuspend cells in seeding medium (DMEM, 0.5% bovine serum), and count the cells using trypan blue. Viability above 90% is acceptable. Seed cells in DMEM medium (0.5% bovine serum) at a density of 10,000 cells per well, 100 μL per well, in a 96 well microtiter plate. Incubate seeded cells in 5% CO2 at 37° C. for about 40 hours.
1. Check seeded cells for contamination using an inverted microscope. Dilute drug stock (10 mg/ml in DMSO) 1:10 in DMEM medium, then transfer 5 μL to a test well for a final drug dilution of 1:200 and a final DMSO concentration of 1%. Control wells receive DMSO alone. Incubate in 5% CO2 at 37° C. for one hour.
2. Prepare EGF ligand: dilute stock EGF in DMEM so that upon transfer of 10 μL dilute EGF (1:12 dilution), 25 nM final concentration is attained.
3. Prepare fresh 10 ml HNTG* sufficient for 100 μL per well wherein HNTG* comprises: HNTG stock (2.0 mL), milli-Q H2O (7.3 mL), EDTA, 100 mM, pH 7.0 (0.5 mL), Na3VO4 0.5 M (0.1 mL) and Na4(P2O7), 0.2 M (0.1 mL).
5. After two hours incubation with drug, add prepared EGF ligand to cells, 10 μL per well, to yield a final concentration of 25 nM. Control wells receive DMEM alone. Incubate, shaking, at room temperature, for 5 minutes.
6. Remove drug, EGF, and DMEM. Wash cells twice with PBS. Transfer HNTG* to cells, 100 μL per well. Place on ice for 5 minutes. Meanwhile, remove blocking buffer from other ELISA plate and wash with TBST as described above.
7. With a pipette tip securely fitted to a micropipettor, scrape cells from plate and homogenize cell material by repeatedly aspirating and dispensing the HNTG* lysis buffer. Transfer lysate to a coated, blocked, and washed ELISA plate. Incubate shaking at room temperature for one hour.
8. Remove lysate and wash 4 times with TBST. Transfer freshly diluted anti-Ptyr antibody to ELISA plate at 100 μL per well. Incubate shaking at room temperature for 30 minutes in the presence of the anti-Ptyr antiserum (1:3000 dilution in TBST).
9. Remove the anti-Ptyr antibody and wash 4 times with TBST. Transfer the freshly diluted TAGO 30 anti-rabbit IgG antibody to the ELISA plate at 100 μL per well. Incubate shaking at room temperature for 30 minutes (anti-rabbit IgG antibody: 1:3000 dilution in TBST).
10. Remove detection antibody and wash 4 times with TBST. Transfer freshly prepared ABTS/H2O2 solution to ELISA plate, 100 μL per well. Incubate at room temperature for 20 minutes. ABTS/H2O2 solution: 1.2 μL 30% H2O2in 10 mL ABTS stock.
11. Stop reaction by adding 50 μL 5N H2SO4 (optional), and determine O.D. at 410 nm.
12. The maximal phosphotyrosine signal is determined by subtracting the value of the negative controls from the positive controls. The percent inhibition of phosphotyrosine content for extract-containing wells is then calculated, after subtraction of the negative controls.
In general terms: ELISA stands for enzyme-linked immunosorbent assay.

The structures appear in SMILES notation.

T1 sequence (P00533 25-1210): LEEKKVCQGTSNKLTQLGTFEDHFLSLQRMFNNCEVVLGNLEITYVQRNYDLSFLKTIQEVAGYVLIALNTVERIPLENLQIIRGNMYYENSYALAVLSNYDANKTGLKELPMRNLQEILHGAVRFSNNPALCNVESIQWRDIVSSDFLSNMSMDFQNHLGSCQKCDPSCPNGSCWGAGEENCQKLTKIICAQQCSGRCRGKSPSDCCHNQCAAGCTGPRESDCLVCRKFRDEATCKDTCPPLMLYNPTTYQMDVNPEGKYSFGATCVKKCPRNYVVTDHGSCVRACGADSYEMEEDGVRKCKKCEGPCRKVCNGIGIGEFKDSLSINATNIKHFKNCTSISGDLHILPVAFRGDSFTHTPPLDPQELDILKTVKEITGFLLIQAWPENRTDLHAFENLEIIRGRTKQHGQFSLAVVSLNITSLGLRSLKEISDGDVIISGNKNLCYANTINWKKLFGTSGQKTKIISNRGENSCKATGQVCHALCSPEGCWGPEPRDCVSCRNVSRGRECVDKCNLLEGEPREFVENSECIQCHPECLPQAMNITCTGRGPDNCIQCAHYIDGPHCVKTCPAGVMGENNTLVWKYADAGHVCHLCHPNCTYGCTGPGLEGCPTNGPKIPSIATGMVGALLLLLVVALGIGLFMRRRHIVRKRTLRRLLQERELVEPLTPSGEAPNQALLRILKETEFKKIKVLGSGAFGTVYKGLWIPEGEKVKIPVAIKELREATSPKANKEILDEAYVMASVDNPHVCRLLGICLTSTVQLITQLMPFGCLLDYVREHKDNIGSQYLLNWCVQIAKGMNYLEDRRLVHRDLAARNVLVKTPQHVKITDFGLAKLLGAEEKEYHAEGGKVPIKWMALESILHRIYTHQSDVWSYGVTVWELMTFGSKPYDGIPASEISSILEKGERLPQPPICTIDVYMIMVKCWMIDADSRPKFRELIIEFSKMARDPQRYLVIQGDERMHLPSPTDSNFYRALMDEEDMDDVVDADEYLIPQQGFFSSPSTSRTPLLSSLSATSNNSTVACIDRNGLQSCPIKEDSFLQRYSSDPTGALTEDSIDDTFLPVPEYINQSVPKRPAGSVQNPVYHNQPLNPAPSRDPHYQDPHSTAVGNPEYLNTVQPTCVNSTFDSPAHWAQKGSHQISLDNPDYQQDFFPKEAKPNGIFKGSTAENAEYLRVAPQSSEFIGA

As to `CC(C)NS(=O)(=O)c1ccc2c(c1)C(=Cc1cc3cc(OCCN4CCOCC4)ccc3[nH]1)C(=O)N2` [IN-055, 3-[5-(2-morpholin-4-yl-ethoxy)-1H-indol-2-ylmethylene]-2-oxo-2,3-dihydro-1H-indole-5-sulfonic acid isopropylamide], the IC50 (commonly the concentration needed to halve the response being measured) in assay [1] was found to be 1500 nM; in assay [2], 3500 nM.

In the case of `O=C1Nc2ccc(S(=O)(=O)Nc3cccc(Cl)c3)cc2C1=Cc1cc2cc(OCCN3CCCC3)ccc2[nH]1` [IN-047, 2-oxo-3-[5-(2-pyrrolidin-1-yl-ethoxy)-1H-indol-2-ylmethylene]-2,3-dihydro-1H-indole-5-sulfonic acid (3-chloro-phenyl)-amide], the half-maximal inhibitory concentration (IC50) in assay [1] came out at 390 nM; in assay [2] it was 870 nM.

In the case of `CN(C)S(=O)(=O)c1ccc2c(c1)C(=Cc1cc3cc(OCCN4CCCC4)ccc3[nH]1)C(=O)N2` [IN-042, 2-oxo-3-[5-(2-pyrrolidin-1-yl-ethoxy)-1H-indol-2-ylmethylene]-2,3-dihydro-1H-indole-5-sulfonic acid dimethylamide], the IC50 came out at 1340 nM in assay [1] and 7840 nM in assay [2].

For the molecule `O=C1Nc2cc(-c3ccccc3)ccc2C1=Cc1cc2cc(OCCN3CCOCC3)ccc2[nH]1` [IN-009, 3-[5-(2-morpholin-4-yl-ethoxy)-1H-indol-2-ylmethylene]-6-phenyl-1,3-dihydro-indol-2-one], the IC50 in assay [1] is 9420 nM; in assay [2], more than 100000 nM.

Turning to `O=C1Nc2ccc(-c3ccccc3)cc2C1=Cc1cc2cc(OCCN3CCCC3)ccc2[nH]1` [IN-006, 5-phenyl-3-[5-(2-pyrrolidin-1-yl-ethoxy)-1H-indol-2-ylmethylene]-1,3-dihydro-indol-2-one], the IC50 in assay [1] came out at 160 nM; in assay [2] it was 4690 nM.

In the case of `O=C1Nc2ccc(S(=O)(=O)N3CCCc4ccccc43)cc2C1=Cc1cc2cc(OCCN3CCOCC3)ccc2[nH]1` [IN-062, 5-(3,4-dihydro-2H-quinoline-1-sulfonyl)-3-[5-(2-morpholin-4-yl-ethoxy)-1H-indol-2-ylmethylene]-1,3-dihydro-indol-2-one], the IC50 is 15400 nM in assay [1] and more than 20000 nM in assay [2].

Consider `O=C1Nc2ccc(S(=O)(=O)Nc3ccc(Cl)cc3F)cc2C1=Cc1cc2cc(OCCN3CCOCC3)ccc2[nH]1` [IN-061, 3-[5-(2-morpholin-4-yl-ethoxy)-1H-indol-2-ylmethylene]-2-oxo-2,3-dihydro-1H-indole-5-sulfonic acid (4-chloro-2-fluoro-phenyl)-amide], for which the IC50 in assay [1] was 390 nM; in assay [2] it was 4460 nM.

For the molecule `O=C1Nc2ccc(S(=O)(=O)Nc3cccc(Cl)c3)cc2C1=Cc1cc2cc(OCCN3CCOCC3)ccc2[nH]1` [IN-059, 3-[5-(2-morpholin-4-yl-ethoxy)-1H-indol-2-ylmethylene]-2-oxo-2,3-dihydro-1H-indole-5-sulfonic acid (3-chloro-phenyl)-amide], the IC50 in assay [1] was 630 nM; in assay [2], more than 20000 nM.

Turning to `CNS(=O)(=O)c1ccc2c(c1)C(=Cc1ccc3[nH]ccc3c1)C(=O)N2` [IN-070, 3-(1H-indol-5-ylmethylene)-2-oxo-2,3-dihydro-1H-indole-5-sulfonic acid methylamide], the IC50 in assay [1] is 2330 nM; in assay [2], more than 100000 nM.

As for `O=C1Nc2cc(-c3ccc(F)cc3)ccc2C1=Cc1cc2cc(OCCN3CCOCC3)ccc2[nH]1` [IN-038, 6-(4-fluoro-phenyl)-3-[5-(2-morpholin-4-yl-ethoxy)-1H-indol-2-ylmethylene]-1,3-dihydro-indol-2-one], the IC50 in assay [1] was more than 10000 nM; in assay [2] it was more than 20000 nM.

As for `O=C1Nc2cccc(CCO)c2C1=Cc1cc2cc(OCCN3CCCC3)ccc2[nH]1` [IN-024, 4-(2-hydroxy-ethyl)-3-[5-(2-pyrrolidin-1-yl-ethoxy)-1H-indol-2-ylmethylene]-1,3-dihydro-indol-2-one], the results for the IC50 in assay [1] and in assay [2] were less than 10 nM and more than 20000 nM, respectively.

Regarding `O=C1Nc2ccc(Br)cc2C1=Cc1cc2cc(OCCN3CCOCC3)ccc2[nH]1` [IN-008, 5-bromo-3-[5-(2-morpholin-4-yl-ethoxy)-1H-indol-2-ylmethylene]-1,3-dihydro-indol-2-one], the figures for the IC50 in assay [1] and in assay [2] were 220 nM and 1970 nM, respectively.

`NS(=O)(=O)c1ccc2c(c1)C(=Cc1c[nH]c3ccccc13)C(=O)N2` [IN-065, 3-(1H-indol-3-ylmethylene)-2-oxo-2,3-dihydro-1H-indole-5-sulfonic acid amide] displayed an IC50 in assay [1] of 11700 nM.
